This passage reports IC50 results from ChEMBL document CHEMBL1134492, “Phenanthroindolizidine alkaloids as cytotoxic substances in a Danaid butterfly, Ideopsis similis, against human cancer cells” (J Med Chem, 2001).

Converted amounts (≈) assume the structure as drawn.

What all share (assay type): functional, cell-based
What all share (details): Homo sapiens

One experiment has as its system A549. The experiment in a line: Inhibitory concentration against A549 (lung cancer) cell line.
The test system of a further experiment is DLD-1. In words: Inhibitory concentration against DLD-1 (colon cancer) cell line.
The test system of another experiment is HeLa. In words: Inhibitory concentration against HeLa (cervical cancer) cell line.
The subject of a further experiment is K562. In words: Inhibitory concentration against K562 (leukemia) cell line.

The IC50 is the concentration at which inhibition is half-maximal. Higher therefore signals a need for much substance.

For `COc1cc2c3c(c4ccc(O)c(OC)c4c2cc1OC)[C@H](O)[C@@H]1CCCN1C3`, the IC50 was determined as 0.5 ng/mL (≈ 1.26 nM) with A549, 0.8 ng/mL (≈ 2.02 nM) in the experiment on DLD-1, 0.1 ng/mL (≈ 0.253 nM) with HeLa and 0.5 ng/mL (≈ 1.26 nM) in the experiment on K562.
Take `COc1cc2c3c(c4ccc(O)cc4c2cc1OC)[C@H](O)[C@@H]1CCCN1C3` [TYLOPHORIDICINE E]: the IC50 in the experiment on A549 is 0.4 ng/mL (≈ 1.09 nM); in the experiment on DLD-1, 0.5 ng/mL (≈ 1.37 nM); in the experiment on HeLa, 0.8 ng/mL (≈ 2.19 nM); in the experiment with K562, 0.4 ng/mL (≈ 1.09 nM).
